In PMC8307156, “Agelasine Diterpenoids and Cbl-b Inhibitory Ageliferins from the Coralline Demosponge Astrosclera willeyana” (Marine Drugs, 2021):

The compounds below were run against T1, Cbl-b ubiquitin ligase (N1/2 construct) (Homo sapiens, UniProt Q13191) (assay: Cbl-b biochemical assay (in vitro autoubiquitination ELISA, inhibition of ubiquitin ligase activity)). Details: in vitro enzymatic activity of Cbl-b ubiquitin ligase; 75-nM Cbl-b, 100 µM ATP, 60 min reaction; read-out: Cbl-b inhibitory activity IC50.
T1 construct: 75-nM Cbl-b (N1/2 construct) [27]
T1 sequence (Q13191 1-483 limits assumed): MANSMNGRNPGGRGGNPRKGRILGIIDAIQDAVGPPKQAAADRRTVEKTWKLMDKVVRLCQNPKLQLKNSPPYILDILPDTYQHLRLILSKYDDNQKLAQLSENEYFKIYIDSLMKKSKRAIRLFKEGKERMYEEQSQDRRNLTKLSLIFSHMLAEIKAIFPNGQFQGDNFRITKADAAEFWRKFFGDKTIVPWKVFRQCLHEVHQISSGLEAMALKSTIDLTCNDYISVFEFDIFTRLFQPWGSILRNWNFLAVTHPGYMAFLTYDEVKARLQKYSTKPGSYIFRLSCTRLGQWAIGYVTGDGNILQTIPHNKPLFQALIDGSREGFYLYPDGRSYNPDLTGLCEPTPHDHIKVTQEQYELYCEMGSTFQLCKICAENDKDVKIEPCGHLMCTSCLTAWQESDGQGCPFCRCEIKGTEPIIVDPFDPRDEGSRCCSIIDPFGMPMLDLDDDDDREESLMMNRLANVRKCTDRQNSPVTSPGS
Protocol: Compounds 1–10 were tested for their ability to inhibit the in vitro enzymatic activity of the Cbl-b ubiquitin ligase (Table 3). […] There was no clear pattern of N-methylation or bromine substitution of the two pyrrole rings that directly correlated with the observed Cbl-b inhibitory activity.
An extract of Astrosclera willeyana was identified as an active source in a screening campaign of prefractionated natural product samples for the inhibition of Cbl-b ubiquitin ligase activity. The bulk extract was fractionated as described above, and the resulting fractions were evaluated for activity in the Cbl-b bioassay, the details of which have already been reported. In brief, dose response experiments with chromatography fractions and purified compounds were carried out in a Tris-HCl-based enzymatic assay buffer with the following final composition: 75-nM Cbl-b (N1/2 construct), 50-nM Ube2d2 protein (E2), 10-nM UBE1protein (E1), 50-nM biotinylated ubiquitin, and 0.5-µM unlabeled recombinant ubiquitin. The assay buffer also contained the following additives: 0.1-mM dithiothreitol, 0.5-mg/mL bovine gelatin (type B), 0.5-mM magnesium chloride, and 0.01% Triton X-100. Reactions were initiated by the addition of ATP to a final concentration of 100 µM. Following initiation, reactions were transferred to plates previously precoated overnight with 10 µg/mL of the polyubiquitin-binding domain of Cbl-b (UBA). The UBA domain of Cbl-b binds ubiquitin chains, which results in the capture and enrichment of autopolyubiquitinated Cbl-b. Following a reaction interval of 60 min, the reactions were quenched by the addition of zinc to a final concentration of 2.4 mM. Quenched reactions were incubated at room temperature overnight. Following this incubation period reaction, plates were processed as standard ELISA plates: washed thrice in Tris-buffered saline (with 0.1% Tween-20, 1X TBST), probed with avidin-conjugated horse radish peroxidase, which binds captured biotinylated ubiquitin, washed again in 1X TBST (3X), and then, an avidin-HRP-dependent fluorescent signal (indicating avidin-HRP/biotin-polyubiquitin complexes captured by the UBA coating on the plate) was detected (excitation 325 nm, emission 420 nm) using an Infinite M1000 (Tecan US, Inc., Raleigh, NC, USA) plate reader.

IC50 [nM] | SMILES
33000 | Cn1cc(Br)cc1C(=O)NCC1C(CNC(=O)c2ccc(Br)[nH]2)Cc2[nH]c(N)nc2C1c1c[nH]c(N)n1 (stereo not shown) [Compound 4, N(1)-methylisoageliferin]
25000 | Cn1c(Br)ccc1C(=O)NC[C@H]1Cc2nc(N)[nH]c2[C@@H](c2c[nH]c(N)n2)[C@@H]1CNC(=O)c1cc(Br)c[nH]1 [Compound 5, N(1′)-methylisoageliferin]
30000 | Cn1cc(Br)cc1C(=O)NC[C@H]1Cc2nc(N)[nH]c2[C@@H](c2c[nH]c(N)n2)[C@@H]1CNC(=O)c1cc(Br)c[nH]1 [Compound 6, N(1′)-methylageliferin]
18000 | Cn1cc(Br)cc1C(=O)NC[C@@H]1[C@@H](CNC(=O)c2ccc(Br)n2C)Cc2nc(N)[nH]c2[C@H]1c1c[nH]c(N)n1 [Compound 7, N(1),N(1′)-dimethylisoageliferin]
19000 | Cn1cc(Br)cc1C(=O)NC[C@H]1Cc2nc(N)[nH]c2[C@@H](c2c[nH]c(N)n2)[C@@H]1CNC(=O)c1cc(Br)cn1C [Compound 8, N(1),N(1′)-dimethylageliferin]
19000 | Cn1cc(Br)cc1C(=O)NC[C@H]1Cc2nc(N)[nH]c2[C@@H](c2c[nH]c(N)n2)[C@@H]1CNC(=O)c1cc(Br)c(Br)[nH]1 [Compound 9, N(1′)-methyl-2-bromoageliferin]
35000 | Cn1c(C(=O)NC[C@H]2Cc3nc(N)[nH]c3[C@@H](c3c[nH]c(N)n3)[C@@H]2CNC(=O)c2cc(Br)c[nH]2)cc(Br)c1Br [Compound 10, N(1′)-methyl-2′-bromoageliferin]

SMILES | IC50 [nM]
CC(=CCn1cnc2c1c(N)nc[n+]2C)CCC1(C)C2=CCCC(C)(C)C2CCC1C (stereo not shown) [Compound 1, Agelasine W] | 57000
CNc1nc[n+](C)c2ncn(C/C=C(\C)CC[C@]3(C)C4=CCCC(C)(C)[C@H]4CC[C@H]3C)c12 [Compound 2, Agelasine X] | 72000
CNc1nc[n+](C)c2ncn(C/C=C(\C)CC[C@@]3(C)[C@H](C)CC[C@]4(C)C(C)=CCC[C@H]34)c12 [Compound 3, Agelasine Y] | 66000
